Source: the supplement of paper PMC12463676, “Small-molecule dissolution of stress granules by redox modulation benefits ALS models” (Nature Chemical Biology, 2025)

What was measured:
[1] = compound: O=[As]([O-])(O)O.[K+] [potassium arsenate]; experiment: thermal stability z-score vs DMSO; higher = more thermally stabilized by treatment; details: HeLa; arsenate concentration 1 mM
Method: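 Cellular thermal proteome profiling in HeLa cells treated with 1 mM arsenate for 1 h (DMSO pretreatment), heated to ten temperatures (37-66.3 °C). Soluble protein was quantified by TMT mass spectrometry relative to DMSO controls; the thermal stability score was transformed to a z-score; mean of n = 3 experiments.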

[2] = compound: NC(=O)CCCCC1CCSS1 [lipoamide]; experiment: as above; details: HeLa, lipoamide concentration 100 µM
Method: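 Cellular thermal proteome profiling in HeLa cells. Cells were treated with 100 µM lipoamide for 1 h, with or without 1 mM arsenate for a further 1 h, then heated to ten temperatures (37-66.3 °C), and soluble protein was quantified by TMT mass spectrometry relative to 0.1% DMSO controls. The thermal stability score (sum of log2 fold changes minus the abundance score) was transformed to a z-score; mean of n = 3 experiments.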

[3] = arsenate co-treatment: 1 mM arsenate 1 h
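Also: each temperature applied for 3 min, abundance score taken as mean log2 fold change at the two lowest temperatures, z-score obtained by mean subtraction and division by SD.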

Chain of UniProt Q6UUV9 (Q6UUV9 whole entry): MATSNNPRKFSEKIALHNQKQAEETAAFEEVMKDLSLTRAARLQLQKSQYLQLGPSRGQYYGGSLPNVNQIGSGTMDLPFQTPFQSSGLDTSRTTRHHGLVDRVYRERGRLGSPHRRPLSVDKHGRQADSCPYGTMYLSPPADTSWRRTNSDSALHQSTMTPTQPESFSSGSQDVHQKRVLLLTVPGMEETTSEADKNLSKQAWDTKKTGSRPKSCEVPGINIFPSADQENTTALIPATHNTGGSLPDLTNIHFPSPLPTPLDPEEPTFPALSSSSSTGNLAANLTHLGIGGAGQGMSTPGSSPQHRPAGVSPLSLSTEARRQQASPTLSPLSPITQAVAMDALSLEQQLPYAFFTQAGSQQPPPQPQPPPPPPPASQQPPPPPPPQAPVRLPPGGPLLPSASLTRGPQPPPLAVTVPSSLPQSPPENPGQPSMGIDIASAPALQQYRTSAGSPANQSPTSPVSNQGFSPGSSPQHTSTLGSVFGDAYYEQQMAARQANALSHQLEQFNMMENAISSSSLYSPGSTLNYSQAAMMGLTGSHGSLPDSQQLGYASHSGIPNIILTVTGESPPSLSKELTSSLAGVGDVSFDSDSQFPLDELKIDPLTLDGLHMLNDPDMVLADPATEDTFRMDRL
Chain of UniProt Q99959 (Q99959 whole entry): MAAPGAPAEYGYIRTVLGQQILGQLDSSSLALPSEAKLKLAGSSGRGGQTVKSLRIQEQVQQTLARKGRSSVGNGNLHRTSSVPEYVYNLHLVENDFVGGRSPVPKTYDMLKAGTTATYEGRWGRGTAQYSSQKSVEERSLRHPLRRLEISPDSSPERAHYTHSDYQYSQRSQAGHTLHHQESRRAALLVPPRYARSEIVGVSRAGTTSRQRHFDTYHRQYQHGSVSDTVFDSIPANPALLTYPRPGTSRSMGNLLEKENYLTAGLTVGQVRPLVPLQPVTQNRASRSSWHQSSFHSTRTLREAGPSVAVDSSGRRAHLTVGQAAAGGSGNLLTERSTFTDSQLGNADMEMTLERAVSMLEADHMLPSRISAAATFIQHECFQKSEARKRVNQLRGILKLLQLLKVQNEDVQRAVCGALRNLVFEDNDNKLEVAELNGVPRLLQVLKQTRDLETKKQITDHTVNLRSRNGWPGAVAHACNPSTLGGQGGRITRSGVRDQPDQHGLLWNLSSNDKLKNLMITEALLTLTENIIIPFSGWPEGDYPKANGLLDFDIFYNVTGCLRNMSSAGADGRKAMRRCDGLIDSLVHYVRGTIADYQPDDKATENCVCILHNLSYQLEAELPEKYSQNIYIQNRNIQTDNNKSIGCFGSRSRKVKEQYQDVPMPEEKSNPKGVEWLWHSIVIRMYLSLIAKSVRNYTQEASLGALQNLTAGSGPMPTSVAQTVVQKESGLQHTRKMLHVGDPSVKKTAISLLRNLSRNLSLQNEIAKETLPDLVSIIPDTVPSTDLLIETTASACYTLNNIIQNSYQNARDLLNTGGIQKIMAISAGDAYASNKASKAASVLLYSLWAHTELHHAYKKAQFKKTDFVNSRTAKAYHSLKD
Chain of UniProt Q9UHR4 (Q9UHR4 whole entry): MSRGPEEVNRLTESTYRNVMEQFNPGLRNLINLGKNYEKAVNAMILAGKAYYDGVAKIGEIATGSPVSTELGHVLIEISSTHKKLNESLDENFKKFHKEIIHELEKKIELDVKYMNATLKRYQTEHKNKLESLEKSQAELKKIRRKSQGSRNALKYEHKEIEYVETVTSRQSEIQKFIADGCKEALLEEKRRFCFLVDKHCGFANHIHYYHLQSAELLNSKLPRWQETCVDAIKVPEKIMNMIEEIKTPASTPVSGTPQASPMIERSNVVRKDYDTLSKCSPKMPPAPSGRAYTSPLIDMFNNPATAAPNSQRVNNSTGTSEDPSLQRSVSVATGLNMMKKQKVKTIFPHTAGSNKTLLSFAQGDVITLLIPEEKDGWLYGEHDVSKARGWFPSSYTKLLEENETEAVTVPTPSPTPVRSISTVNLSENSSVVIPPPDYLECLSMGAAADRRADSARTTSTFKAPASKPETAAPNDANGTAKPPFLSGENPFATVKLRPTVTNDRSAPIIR
Chain of UniProt O14497 (O14497 whole entry): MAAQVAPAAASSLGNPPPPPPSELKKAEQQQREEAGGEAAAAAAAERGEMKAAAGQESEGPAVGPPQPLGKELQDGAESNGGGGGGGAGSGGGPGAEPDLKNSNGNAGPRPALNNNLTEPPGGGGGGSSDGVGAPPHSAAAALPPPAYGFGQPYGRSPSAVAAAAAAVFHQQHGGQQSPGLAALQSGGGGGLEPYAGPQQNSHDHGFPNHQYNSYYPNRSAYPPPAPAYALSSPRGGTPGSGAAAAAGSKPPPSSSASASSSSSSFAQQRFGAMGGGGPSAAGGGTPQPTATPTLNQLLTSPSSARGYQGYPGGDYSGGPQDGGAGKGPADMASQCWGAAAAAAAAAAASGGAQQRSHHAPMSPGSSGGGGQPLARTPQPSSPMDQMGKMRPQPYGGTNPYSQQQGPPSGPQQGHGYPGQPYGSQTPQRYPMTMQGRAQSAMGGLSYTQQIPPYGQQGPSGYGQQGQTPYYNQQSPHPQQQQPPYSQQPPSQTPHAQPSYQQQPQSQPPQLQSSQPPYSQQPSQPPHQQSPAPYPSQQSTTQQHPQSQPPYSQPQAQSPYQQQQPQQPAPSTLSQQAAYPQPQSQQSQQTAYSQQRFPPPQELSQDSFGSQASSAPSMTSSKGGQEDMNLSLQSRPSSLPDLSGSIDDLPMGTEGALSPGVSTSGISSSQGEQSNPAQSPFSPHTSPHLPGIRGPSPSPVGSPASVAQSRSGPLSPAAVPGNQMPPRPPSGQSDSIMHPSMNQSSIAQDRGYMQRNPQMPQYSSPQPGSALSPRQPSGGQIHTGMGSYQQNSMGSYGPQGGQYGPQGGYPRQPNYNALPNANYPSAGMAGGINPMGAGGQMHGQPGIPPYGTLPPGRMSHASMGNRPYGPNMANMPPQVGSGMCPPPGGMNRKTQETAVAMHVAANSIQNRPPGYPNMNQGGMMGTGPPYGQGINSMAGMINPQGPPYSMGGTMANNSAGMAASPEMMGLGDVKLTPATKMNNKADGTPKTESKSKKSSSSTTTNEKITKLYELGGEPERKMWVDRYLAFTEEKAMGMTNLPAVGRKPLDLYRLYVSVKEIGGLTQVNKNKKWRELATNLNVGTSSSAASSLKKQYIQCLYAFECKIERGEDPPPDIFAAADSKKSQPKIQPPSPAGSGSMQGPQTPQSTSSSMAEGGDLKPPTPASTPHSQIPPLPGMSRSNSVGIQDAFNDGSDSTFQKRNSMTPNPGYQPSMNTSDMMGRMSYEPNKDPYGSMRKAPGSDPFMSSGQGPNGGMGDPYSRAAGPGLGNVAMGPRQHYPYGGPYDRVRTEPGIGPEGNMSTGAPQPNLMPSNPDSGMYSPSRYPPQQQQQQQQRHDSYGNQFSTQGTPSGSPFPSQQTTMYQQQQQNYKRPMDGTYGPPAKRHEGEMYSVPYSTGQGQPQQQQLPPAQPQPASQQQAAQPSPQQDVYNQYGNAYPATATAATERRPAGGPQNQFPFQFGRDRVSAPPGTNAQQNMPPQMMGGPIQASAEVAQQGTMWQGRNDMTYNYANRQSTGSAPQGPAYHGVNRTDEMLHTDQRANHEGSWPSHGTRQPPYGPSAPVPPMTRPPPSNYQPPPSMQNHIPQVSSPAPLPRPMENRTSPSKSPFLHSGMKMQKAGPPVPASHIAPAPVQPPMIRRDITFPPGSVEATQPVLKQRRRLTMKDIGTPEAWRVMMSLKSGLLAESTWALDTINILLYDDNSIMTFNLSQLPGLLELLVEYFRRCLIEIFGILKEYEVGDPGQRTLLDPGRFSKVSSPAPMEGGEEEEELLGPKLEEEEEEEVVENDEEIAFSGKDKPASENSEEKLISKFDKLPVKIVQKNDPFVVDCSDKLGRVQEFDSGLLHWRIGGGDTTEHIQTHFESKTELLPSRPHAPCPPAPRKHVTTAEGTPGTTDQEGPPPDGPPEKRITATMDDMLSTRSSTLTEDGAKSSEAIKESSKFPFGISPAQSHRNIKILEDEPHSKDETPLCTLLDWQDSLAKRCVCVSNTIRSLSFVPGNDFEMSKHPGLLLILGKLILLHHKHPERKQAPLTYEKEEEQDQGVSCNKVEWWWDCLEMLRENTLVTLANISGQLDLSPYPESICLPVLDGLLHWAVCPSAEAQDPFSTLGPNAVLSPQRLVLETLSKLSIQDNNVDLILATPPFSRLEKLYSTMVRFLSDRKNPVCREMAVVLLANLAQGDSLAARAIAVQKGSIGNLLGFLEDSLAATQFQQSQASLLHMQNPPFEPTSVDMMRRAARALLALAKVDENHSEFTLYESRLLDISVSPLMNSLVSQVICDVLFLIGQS
Chain of UniProt Q9NQ48 (Q9NQ48 whole entry): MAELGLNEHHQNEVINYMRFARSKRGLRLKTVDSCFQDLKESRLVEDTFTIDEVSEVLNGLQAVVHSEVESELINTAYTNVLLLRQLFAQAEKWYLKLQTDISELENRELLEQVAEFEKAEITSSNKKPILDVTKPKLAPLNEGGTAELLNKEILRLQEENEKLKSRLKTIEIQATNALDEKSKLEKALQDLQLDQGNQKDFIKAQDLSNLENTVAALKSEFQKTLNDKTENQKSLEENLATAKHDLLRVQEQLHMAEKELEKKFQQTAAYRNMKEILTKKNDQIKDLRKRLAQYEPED
Chain of UniProt Q9H944 (Q9H944 whole entry): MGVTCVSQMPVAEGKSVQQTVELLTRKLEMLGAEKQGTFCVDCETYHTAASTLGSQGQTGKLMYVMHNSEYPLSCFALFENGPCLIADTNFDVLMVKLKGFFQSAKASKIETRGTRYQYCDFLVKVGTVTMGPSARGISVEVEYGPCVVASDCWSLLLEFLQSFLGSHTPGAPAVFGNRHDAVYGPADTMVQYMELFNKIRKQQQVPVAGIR
Chain of UniProt P38117 (P38117 whole entry): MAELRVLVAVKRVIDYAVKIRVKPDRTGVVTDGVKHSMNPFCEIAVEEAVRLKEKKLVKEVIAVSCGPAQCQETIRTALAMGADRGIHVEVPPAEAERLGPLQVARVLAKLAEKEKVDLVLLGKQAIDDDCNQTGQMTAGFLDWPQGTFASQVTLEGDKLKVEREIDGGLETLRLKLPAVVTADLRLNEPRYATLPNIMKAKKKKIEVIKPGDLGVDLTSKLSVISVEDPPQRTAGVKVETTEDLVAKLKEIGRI

With CLCC1 (UniProt Q96S66) as the target, how does the thermal stability z-score [1] read?
Its thermal stability z-score is 0.408.

What about the thermal stability z-score [2, 3] of the same target?
Its thermal stability z-score is -5.63.

What about the thermal stability z-score ([2]; arsenate co-treatment: none) of the same target?
The thermal stability z-score was -5.9.

What does the source list for SRRM1 (UniProt Q8IYB3)?
thermal stability z-score [1]: -2.14; thermal stability z-score [2, 3]: 0.79; thermal stability z-score ([2]; arsenate co-treatment: none): 0.714

For LRRC16A (UniProt Q5VZK9), which thermal stability z-score [1] is on record?
Its thermal stability z-score is 1.26.

And the thermal stability z-score [2, 3]?
The thermal stability z-score was 0.276.

And the thermal stability z-score ([2]; arsenate co-treatment: none)?
Its thermal stability z-score is 0.0854.

NDC1 (UniProt Q9BTX1) was tested. Which thermal stability z-score [1] did it give?
The thermal stability z-score was 0.177.

And the thermal stability z-score [2, 3]?
Its thermal stability z-score is 0.0748.

What about the thermal stability z-score ([2]; arsenate co-treatment: none) of the same target?
The thermal stability z-score was 0.0634.

How did the thermal stability z-score [1] turn out when MED20 (UniProt Q9H944) was run?
The thermal stability z-score was -0.226.

And the thermal stability z-score [2, 3]?
The thermal stability z-score was 0.506.

And the thermal stability z-score ([2]; arsenate co-treatment: none)?
Its thermal stability z-score is -0.154.

What does the source list for DHRS4 (UniProt Q9BTZ2)?
thermal stability z-score [1]: 0.0753; thermal stability z-score [2, 3]: -0.194; thermal stability z-score ([2]; arsenate co-treatment: none): -0.173

What does the source list for PSMA3 (UniProt P25788)?
thermal stability z-score [1]: 0.398; thermal stability z-score [2, 3]: 0.613; thermal stability z-score ([2]; arsenate co-treatment: none): 0.719

What does the source list for MAP7 (UniProt Q14244)?
thermal stability z-score [1]: -0.779; thermal stability z-score [2, 3]: 0.478; thermal stability z-score ([2]; arsenate co-treatment: none): -0.183

How did the thermal stability z-score [1] turn out when RINT1 (UniProt Q6NUQ1) was run?
Its thermal stability z-score is 0.354.

What about the thermal stability z-score [2, 3] of the same target?
Its thermal stability z-score is -0.699.

What about the thermal stability z-score ([2]; arsenate co-treatment: none) of the same target?
The thermal stability z-score was -0.111.

Which thermal stability z-score [1] does the source give for INF2 (UniProt Q27J81) here?
The thermal stability z-score was 0.0741.

What about the thermal stability z-score [2, 3] of the same target?
Its thermal stability z-score is -0.674.

What about the thermal stability z-score ([2]; arsenate co-treatment: none) of the same target?
The thermal stability z-score was -0.257.

Which results are given for C1ORF131 (UniProt Q8NDD1)?
thermal stability z-score [1]: -0.733; thermal stability z-score [2, 3]: 1.04; thermal stability z-score ([2]; arsenate co-treatment: none): -0.388

How did the thermal stability z-score [1] turn out when LZTFL1 (UniProt Q9NQ48) was run?
Its thermal stability z-score is -0.312.

What about the thermal stability z-score [2, 3] of the same target?
The thermal stability z-score was 0.0385.

And the thermal stability z-score ([2]; arsenate co-treatment: none)?
Its thermal stability z-score is 0.0985.

What does the source list for LRP8 (UniProt Q14114)?
thermal stability z-score [1]: -0.43; thermal stability z-score [2, 3]: -0.785; thermal stability z-score ([2]; arsenate co-treatment: none): -0.422

With SMU1 (UniProt Q2TAY7) as the target, how does the thermal stability z-score [1] read?
The thermal stability z-score was 0.656.

And the thermal stability z-score [2, 3]?
The thermal stability z-score was -0.141.

And the thermal stability z-score ([2]; arsenate co-treatment: none)?
Its thermal stability z-score is -0.0867.

For PSPC1 (UniProt Q8WXF1), which thermal stability z-score [1] is on record?
The thermal stability z-score was 0.449.

And the thermal stability z-score [2, 3]?
Its thermal stability z-score is -0.0313.

And the thermal stability z-score ([2]; arsenate co-treatment: none)?
The thermal stability z-score was 0.551.

Which results are given for ARID1A (UniProt O14497)?
thermal stability z-score [1]: -0.205; thermal stability z-score [2, 3]: 0.0489; thermal stability z-score ([2]; arsenate co-treatment: none): -0.0643

What does the source list for DSN1 (UniProt Q9H410)?
thermal stability z-score [1]: 0.127; thermal stability z-score [2, 3]: 0.0417; thermal stability z-score ([2]; arsenate co-treatment: none): -0.0069

ETFB (UniProt P38117) was tested. Which thermal stability z-score [1] did it give?
Its thermal stability z-score is -1.2.

And the thermal stability z-score [2, 3]?
The thermal stability z-score was -0.321.

And the thermal stability z-score ([2]; arsenate co-treatment: none)?
The thermal stability z-score was 0.54.

How did the thermal stability z-score [1] turn out when UBE2J1 (UniProt Q9Y385) was run?
Its thermal stability z-score is 0.198.

What about the thermal stability z-score [2, 3] of the same target?
The thermal stability z-score was -0.909.

What about the thermal stability z-score ([2]; arsenate co-treatment: none) of the same target?
Its thermal stability z-score is -0.103.

Which results are given for PPP2R2D (UniProt Q66LE6)?
thermal stability z-score [1]: 0.0879; thermal stability z-score [2, 3]: -0.473; thermal stability z-score ([2]; arsenate co-treatment: none): -0.0425

What does the source list for CRTC1 (UniProt Q6UUV9)?
thermal stability z-score [1]: -0.151; thermal stability z-score [2, 3]: -0.063; thermal stability z-score ([2]; arsenate co-treatment: none): -0.202

With BLOC1S2 (UniProt Q6QNY1) as the target, how does the thermal stability z-score [1] read?
The thermal stability z-score was 1.61.

And the thermal stability z-score [2, 3]?
Its thermal stability z-score is 2.75.

And the thermal stability z-score ([2]; arsenate co-treatment: none)?
Its thermal stability z-score is 1.1.

PKP2 (UniProt Q99959) was tested. Which thermal stability z-score [1] did it give?
The thermal stability z-score was -0.371.

What about the thermal stability z-score [2, 3] of the same target?
The thermal stability z-score was 0.0483.

What about the thermal stability z-score ([2]; arsenate co-treatment: none) of the same target?
Its thermal stability z-score is -0.112.

For RAB11FIP1 (UniProt Q6WKZ4), which thermal stability z-score [1] is on record?
Its thermal stability z-score is -0.162.

And the thermal stability z-score [2, 3]?
Its thermal stability z-score is 0.271.

And the thermal stability z-score ([2]; arsenate co-treatment: none)?
The thermal stability z-score was -0.127.

For PIK3C2A (UniProt O00443), which thermal stability z-score [1] is on record?
The thermal stability z-score was 0.167.

What about the thermal stability z-score [2, 3] of the same target?
The thermal stability z-score was -0.267.

What about the thermal stability z-score ([2]; arsenate co-treatment: none) of the same target?
The thermal stability z-score was 0.213.

Which thermal stability z-score [1] does the source give for AGO1 (UniProt Q9UL18) here?
Its thermal stability z-score is -0.337.

And the thermal stability z-score [2, 3]?
Its thermal stability z-score is -0.0919.

And the thermal stability z-score ([2]; arsenate co-treatment: none)?
Its thermal stability z-score is -0.396.

With PLGRKT (UniProt Q9HBL7) as the target, how does the thermal stability z-score [1] read?
The thermal stability z-score was 0.783.

And the thermal stability z-score [2, 3]?
The thermal stability z-score was 0.684.

And the thermal stability z-score ([2]; arsenate co-treatment: none)?
The thermal stability z-score was 0.147.

For NT5C2 (UniProt P49902), which thermal stability z-score [1] is on record?
Its thermal stability z-score is -0.0391.

What about the thermal stability z-score [2, 3] of the same target?
Its thermal stability z-score is 0.892.

What about the thermal stability z-score ([2]; arsenate co-treatment: none) of the same target?
Its thermal stability z-score is -0.608.

What does the source list for BAIAP2L1 (UniProt Q9UHR4)?
thermal stability z-score [1]: 0.177; thermal stability z-score [2, 3]: 0.0217; thermal stability z-score ([2]; arsenate co-treatment: none): -0.166

What does the source list for TRABD (UniProt Q9H4I3)?
thermal stability z-score [1]: -0.0912; thermal stability z-score [2, 3]: 0.366; thermal stability z-score ([2]; arsenate co-treatment: none): 0.172

What does the source list for CARM1 (UniProt Q86X55)?
thermal stability z-score [1]: 0.086; thermal stability z-score [2, 3]: 0.99; thermal stability z-score ([2]; arsenate co-treatment: none): 0.944

With POLR3B (UniProt Q9NW08) as the target, how does the thermal stability z-score [1] read?
Its thermal stability z-score is 0.309.

And the thermal stability z-score [2, 3]?
Its thermal stability z-score is 0.417.

And the thermal stability z-score ([2]; arsenate co-treatment: none)?
The thermal stability z-score was 0.0689.

Which results are given for TRIM44 (UniProt Q96DX7)?
thermal stability z-score [1]: 0.419; thermal stability z-score [2, 3]: 0.0927; thermal stability z-score ([2]; arsenate co-treatment: none): -0.409

With ARL13B (UniProt Q3SXY8) as the target, how does the thermal stability z-score [1] read?
Its thermal stability z-score is -1.37.

What about the thermal stability z-score [2, 3] of the same target?
Its thermal stability z-score is -0.415.

And the thermal stability z-score ([2]; arsenate co-treatment: none)?
Its thermal stability z-score is -0.29.

What does the source list for MRPS2 (UniProt Q9Y399)?
thermal stability z-score [1]: 0.591; thermal stability z-score [2, 3]: 0.15; thermal stability z-score ([2]; arsenate co-treatment: none): 0.188

How did the thermal stability z-score [1] turn out when CASP8 (UniProt Q14790) was run?
The thermal stability z-score was -0.648.

And the thermal stability z-score [2, 3]?
The thermal stability z-score was -2.33.

And the thermal stability z-score ([2]; arsenate co-treatment: none)?
Its thermal stability z-score is -0.106.
